{"source": "patent US11344532B2", "about": "“Topically administrable formulation for the control and prevention of animal parasites” (BAYER ANIMAL HEALTH GMBH, priority 2017, dated 2022)", "key": {"[1]": {"test": "solubilities of active compounds in solvents", "type": "physicochemical", "experimental": "The flash point of 130° C. is sufficiently high for safe production. Studies with selected fluorinated antiparasitics in triethyl phosphate formulations show good and long-lasting activity against fleas and various ticks on dogs and cats."}, "[2]": {"test": "skin compatibility of triethyl phosphate", "conditions": "with rats, dogs and cats"}, "[3]": {"test": "toxicity of triethyl phosphate"}, "[4]": {"conditions": "solvent 83.3% propylene carbonate 16.7% benzyl alcohol"}}, "note": "Read-outs that look alike come from different tables or passages of the source."}
{"molecule": "O=C(NC1CC1)c1cc(-c2cnn(-c3c(Cl)cc(C(F)(C(F)(F)F)C(F)(F)F)cc3OC(F)(F)F)c2)cnc1Cl", "note": "[Compound 1, 2-chloro-5-[1-[2-chloro-4-[1,2,2,2-tetrafluoro-1-(trifluoromethyl)ethyl]-6-(trifluoromethoxy)phenyl]-1H-pyrazol-4-yl]-N-cyclopropyl-3-pyridinecarboxamide]", "values": [{"measurement": "solubility in 83.3% propylene carbonate 16.7% benzyl alcohol", "setting": "[1]; [4]", "value": "17% (w/w)"}, {"measurement": "solubility in propylene carbonate", "setting": "[1]; solvent propylene carbonate", "value": "5% (w/w)"}, {"measurement": "solubility in triethyl phosphate", "setting": "[1]; solvent triethyl phosphate", "value": "44% (w/w)"}]}
{"molecule": "CON=CNC(=O)c1ccc(C2=NOC(c3cc(Cl)cc(Cl)c3)(C(F)(F)F)C2)cc1C", "note": "(centres unmarked) [fluxametamide]", "values": [{"measurement": "solubility in 83.3% propylene carbonate 16.7% benzyl alcohol", "setting": "[1]; [4]", "value": "6% (w/w)"}, {"measurement": "solubility in propylene carbonate", "setting": "[1]; solvent propylene carbonate", "value": "3% (w/w)"}, {"measurement": "solubility in triethyl phosphate", "setting": "[1]; solvent triethyl phosphate", "value": "20% (w/w)"}]}
{"molecule": "Cc1cc(C2=NOC(c3cc(Cl)cc(Cl)c3)(C(F)(F)F)C2)ccc1C(=O)NCC(=O)NCC(F)(F)F", "note": "(centres unmarked) [fluralaner]", "values": [{"measurement": "solubility in 83.3% propylene carbonate 16.7% benzyl alcohol", "setting": "[1]; [4]", "value": "13% (w/w)"}, {"measurement": "solubility in propylene carbonate", "setting": "[1]; solvent propylene carbonate", "value": "7% (w/w)"}, {"measurement": "solubility in triethyl phosphate", "setting": "[1]; solvent triethyl phosphate", "value": "41% (w/w)"}]}
{"molecule": "CCOP(=O)(OCC)OCC", "note": "[Triethyl phosphate, triethyl phosphate]", "values": [{"measurement": "skin compatibility", "setting": "[2]", "value": "excellent skin compatibility"}, {"measurement": "toxicity", "setting": "[3]", "value": "low toxicity"}]}
{"molecule": "Cn1nc(C(F)(F)C(F)(F)F)c(C(F)(F)F)c1-n1cc(-c2ccc(Cl)c(C(=O)NC3(C#N)CC3)c2)cn1", "note": "[tigolaner]", "values": [{"measurement": "solubility in 83.3% propylene carbonate 16.7% benzyl alcohol", "setting": "[1]; [4]", "value": "20% (w/w)"}, {"measurement": "solubility in propylene carbonate", "setting": "[1]; solvent propylene carbonate", "value": "26% (w/w)"}, {"measurement": "solubility in triethyl phosphate", "setting": "[1]; solvent triethyl phosphate", "value": "52% (w/w)"}]}
{"molecule": "O=C(NC1CC1)c1cc(-c2cnn(-c3c(Cl)cc(C(F)(C(F)(F)F)C(F)(F)F)cc3C(F)(F)F)c2)cnc1Cl", "note": "[Compound 2, 2-chloro-5-[1-[2-chloro-4-[1,2,2,2-tetrafluoro-1-(trifluoromethyl)ethyl]-6-(trifluoromethyl)phenyl]-1H-pyrazol-4-yl]-N-cyclopropyl-3-pyridinecarboxamide]", "values": [{"measurement": "solubility in 83.3% propylene carbonate 16.7% benzyl alcohol", "setting": "[1]; [4]", "value": "14% (w/w)"}, {"measurement": "solubility in propylene carbonate", "setting": "[1]; solvent propylene carbonate", "value": "4% (w/w)"}, {"measurement": "solubility in triethyl phosphate", "setting": "[1]; solvent triethyl phosphate", "value": "40% (w/w)"}]}
{"molecule": "N#Cc1nn(-c2c(Cl)cc(C(F)(F)F)cc2Cl)c(N)c1[S+]([O-])C(F)(F)F", "note": "(centres unmarked) [fipronil]", "values": [{"measurement": "solubility in 83.3% propylene carbonate 16.7% benzyl alcohol", "setting": "[1]", "value": "5% (w/w)"}, {"measurement": "solubility in propylene carbonate", "setting": "[1]", "value": "11% (w/w)"}, {"measurement": "solubility in triethyl phosphate", "setting": "[1]", "value": "36% (w/w)"}]}
{"molecule": "N#Cc1nn(-c2c(Cl)cc(C(F)(F)F)cc2Cl)c(NCc2ccccn2)c1SC(F)F", "note": "[pyriprole]", "values": [{"measurement": "solubility in 83.3% propylene carbonate 16.7% benzyl alcohol", "setting": "[1]; [4]", "value": "28% (w/w)"}, {"measurement": "solubility in propylene carbonate", "setting": "[1]; solvent propylene carbonate", "value": "21% (w/w)"}, {"measurement": "solubility in triethyl phosphate", "setting": "[1]; solvent triethyl phosphate", "value": "49% (w/w)"}]}
